Assays:
Assay type in all cases: biochemical
[1] = molecular target: T1, Kdr (Homo sapiens, UniProt P35968); assay: Z'-Lyte FRET kinase assay (Invitrogen), Kdr; conditions: read-out: IC50, activity toward kinase Kdr
T1 construct: purchased Invitrogen (assay run by Invitrogen)

[2] = molecular target: T2, Jnk1 (Homo sapiens, UniProt P45983); assay: AlphaScreen kinase assay, Jnk1; conditions: read-out: IC50, activity toward kinase Jnk1
T2 construct: purchased Upstate Biotechnology

[3] = molecular target: T3, Jnk2 (Homo sapiens, UniProt P45984); assay: AlphaScreen kinase assay, Jnk2; conditions: read-out: IC50, activity toward kinase Jnk2
T3 construct: purchased Roche Protein Expression Group (Indianapolis, IN)
In short: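 Compounds in DMSO (20 mM stock) were diluted 1:3 across 8 points. Each kinase phosphorylated a biotin-labelled peptide. Signal generated when donor and acceptor beads came close via antibody binding of phosphorylated substrate.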

[4] = molecular target: T4, B-Raf V600E (Homo sapiens, UniProt P15056, V600E); assay: AlphaScreen kinase assay, B-Raf V600E; conditions: read-out: IC50, activity toward kinase B-Raf V600E
T4 construct: P4254. pFastBacBD-CDC37 BRAF D437-K722-X, V600E; His6 with pFastBac HT leader (TEV site) (N); made in house; host or cells: Sf9 (baculovirus; chaperone CDC37 co-expressed)

[5] = molecular target: T5, Jnk3 (Homo sapiens, UniProt P53779); assay: AlphaScreen kinase assay, Jnk3; conditions: read-out: IC50, activity toward kinase Jnk3
T5 construct: purchased Upstate Biotechnology
Description: (§1) AlphaScreen assay was used to screen additional kinases. The assay is similarly dependent on the phosphorylation of a peptide substrate. In this assay, an antibody that recognizes phosphorylated substrate is bound to an acceptor bead. The peptide substrate is attached to biotin, which binds to a donor head that contains streptavidin. Thus phosphorylated substrate is bound by antibody and streptavidin, bringing the donor and acceptor heads into close proximity when kinase is not inhibited. The donor produces singlet oxygen which results in emission from the acceptor when they are in close proximity. Conversely, when kinase is inhibited, the donor and acceptor beads are not associated and the emission from the acceptor is reduced.
(§2) AlphaScreen assays were done using compounds dissolved in DMSO to a concentration of 20 mM. The compounds were diluted accordingly to the desired final concentrations in each sample well, using 1:3 serial dilution for a total of 8 concentration points. Plates were prepared such that each kinase reaction is 20 μl in 1× kinase buffer, 5% DMSO and 10 μM ATP. After incubation of the kinase reaction for 1 hour at room temperature, 5 μl of donor beads in stop buffer (50 mM EDTA in 1× kinase buffer) was added, the sample was mixed and incubated for 20 minutes at room temperature before adding 5 μl of acceptor beads in stop buffer. The samples were incubated for 60 minutes at room temperature and the signal per well was read on AlphaQuest reader.

[6] = molecular target: T6, FGFR1 (Homo sapiens, UniProt P11362, C488A/C584S); assay: AlphaScreen kinase assay, FGFR1; conditions: read-out: IC50, activity toward kinase FGFR
T6 construct: P1351.pET N6 BI-PTP FGFR A458-E765-X C488A, C584S; made in house; host or cells: E. coli (PTP1B co-expressed)

[7] = molecular target: T7, Ret (Homo sapiens, UniProt P07949); assay: AlphaScreen kinase assay, Ret; conditions: read-out: IC50, activity toward kinase Ret
T7 construct: P1378.pET-SF BI-PTP RET H661-R1012 HIS; made in house
T7 sequence (P07949 with tags, fused parts or gaps): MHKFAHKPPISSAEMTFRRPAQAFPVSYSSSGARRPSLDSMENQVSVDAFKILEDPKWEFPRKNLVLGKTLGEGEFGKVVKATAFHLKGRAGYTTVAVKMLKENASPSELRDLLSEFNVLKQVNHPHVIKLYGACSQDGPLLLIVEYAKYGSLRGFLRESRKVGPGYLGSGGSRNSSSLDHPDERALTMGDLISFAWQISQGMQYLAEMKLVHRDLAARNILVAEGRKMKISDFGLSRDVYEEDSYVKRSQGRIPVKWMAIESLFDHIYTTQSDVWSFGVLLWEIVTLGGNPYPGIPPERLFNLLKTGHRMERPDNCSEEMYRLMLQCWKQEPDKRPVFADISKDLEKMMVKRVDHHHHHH

[8] = molecular target: T8, c-Raf-1 (Homo sapiens, UniProt P04049); assay: AlphaScreen kinase assay, c-Raf-1; conditions: read-out: IC50, activity toward kinase c-Raf-1
T8 construct: purchased Upstate Biotechnology

[9] = molecular target: T9, B-Raf (Homo sapiens, UniProt P15056); assay: AlphaScreen kinase assay, B-Raf; conditions: read-out: IC50, activity toward kinase B-Raf
T9 construct: purchased Upstate Biotechnology

[10] = molecular target: T10, Fms (Homo sapiens, UniProt P07333); assay: AlphaScreen kinase assay, Fms; conditions: read-out: IC50, activity toward kinase Fms
T10 construct: purchased Upstate Biotechnology

[11] = molecular target: T11, Src (Homo sapiens, UniProt P12931); assay: AlphaScreen kinase assay, Src; conditions: read-out: IC50, activity toward kinase Src
T11 construct: P1144. pET-N6 BI-PTP SRC V86-L536-X; made in house

[12] = molecular target: T12, Fak (Homo sapiens, UniProt Q05397); assay: AlphaScreen kinase assay, Fak; conditions: read-out: IC50, activity toward kinase Fak
T12 construct: P1358.pFastBacHtb FAK S411-Q686-X; His6 with pFastBacHTb leader (TEV site) (N); made in house; host or cells: Sf9 (baculovirus)
Description: as §1, §2

[13] = molecular target: T13, Kit (Homo sapiens, UniProt P10721); assay: AlphaScreen kinase assay, Kit; conditions: read-out: IC50, activity toward kinase Kit
T13 construct: P1332.N6 BI PTP KIT M552-K948-X COD; His6 (N); made in house; host or cells: E. coli (PTP1B co-expressed)

[14] = molecular target: T14, Flt1 (Homo sapiens, UniProt P17948); assay: AlphaScreen kinase assay, Flt1; conditions: read-out: IC50, activity toward kinase Flt1
T14 construct: P1826.pETN6 BI-PTP FLT1 M799-D1165-X WT; His6 (N); made in house; host or cells: E. coli (PTP1B co-expressed)
T14 sequence (P17948 with tags, fused parts or gaps): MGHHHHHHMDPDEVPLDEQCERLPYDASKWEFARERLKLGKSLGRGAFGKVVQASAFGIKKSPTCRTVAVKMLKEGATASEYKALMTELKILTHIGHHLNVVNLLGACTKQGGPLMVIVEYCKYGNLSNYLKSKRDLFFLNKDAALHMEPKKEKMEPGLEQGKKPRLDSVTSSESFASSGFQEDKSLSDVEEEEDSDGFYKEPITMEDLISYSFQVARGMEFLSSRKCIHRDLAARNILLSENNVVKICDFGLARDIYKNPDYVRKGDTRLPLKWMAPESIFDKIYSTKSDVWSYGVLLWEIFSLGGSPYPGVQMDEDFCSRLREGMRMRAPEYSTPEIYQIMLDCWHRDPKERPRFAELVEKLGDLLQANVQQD

[15] = molecular target: T15, Pyk2 (Homo sapiens, UniProt Q14289); assay: AlphaScreen kinase assay, Pyk2; conditions: read-out: IC50, activity toward kinase Pyk2
T15 construct: purchased Upstate Biotechnology

[16] = molecular target: T16, Btk (Homo sapiens, UniProt Q06187); assay: Z'-Lyte FRET kinase assay (Invitrogen), Btk; conditions: read-out: IC50, activity toward kinase Btk
T16 construct: purchased Invitrogen (assay run by Invitrogen)

Measured: IC50

T3 sequence (P45984 whole entry): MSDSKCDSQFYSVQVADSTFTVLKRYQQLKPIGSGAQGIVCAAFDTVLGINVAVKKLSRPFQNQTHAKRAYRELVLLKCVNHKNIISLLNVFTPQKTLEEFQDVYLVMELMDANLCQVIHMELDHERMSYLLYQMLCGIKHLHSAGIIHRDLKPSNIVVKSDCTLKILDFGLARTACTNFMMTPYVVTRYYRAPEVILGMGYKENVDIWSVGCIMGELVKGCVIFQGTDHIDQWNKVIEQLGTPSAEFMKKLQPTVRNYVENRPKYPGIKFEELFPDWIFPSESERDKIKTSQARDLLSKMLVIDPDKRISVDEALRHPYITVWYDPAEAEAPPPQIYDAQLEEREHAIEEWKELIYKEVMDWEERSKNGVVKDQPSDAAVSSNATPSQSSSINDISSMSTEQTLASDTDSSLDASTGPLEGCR
T4 sequence (P15056 with tags, fused parts or gaps V600E): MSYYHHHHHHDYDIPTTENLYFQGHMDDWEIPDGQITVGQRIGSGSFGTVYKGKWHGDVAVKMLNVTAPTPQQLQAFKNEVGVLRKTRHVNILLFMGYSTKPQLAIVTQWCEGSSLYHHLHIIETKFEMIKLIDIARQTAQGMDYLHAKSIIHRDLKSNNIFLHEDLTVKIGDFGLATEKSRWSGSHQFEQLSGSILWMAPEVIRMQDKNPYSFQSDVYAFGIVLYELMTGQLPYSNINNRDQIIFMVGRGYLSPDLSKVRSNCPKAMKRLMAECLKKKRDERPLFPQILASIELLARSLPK
T5 sequence (P53779 whole entry): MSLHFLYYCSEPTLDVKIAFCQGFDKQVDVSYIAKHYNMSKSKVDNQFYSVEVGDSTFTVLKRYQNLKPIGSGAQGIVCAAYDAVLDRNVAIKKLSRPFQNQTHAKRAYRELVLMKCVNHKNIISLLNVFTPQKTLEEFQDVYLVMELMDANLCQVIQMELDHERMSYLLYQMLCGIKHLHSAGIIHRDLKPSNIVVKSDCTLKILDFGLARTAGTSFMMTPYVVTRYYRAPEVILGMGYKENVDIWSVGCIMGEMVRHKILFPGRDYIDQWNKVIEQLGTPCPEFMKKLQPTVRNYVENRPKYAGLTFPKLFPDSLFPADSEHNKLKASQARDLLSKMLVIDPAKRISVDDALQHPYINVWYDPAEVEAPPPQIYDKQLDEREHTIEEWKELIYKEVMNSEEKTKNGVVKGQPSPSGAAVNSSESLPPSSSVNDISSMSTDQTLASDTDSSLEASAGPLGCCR
T9 sequence (P15056 whole entry): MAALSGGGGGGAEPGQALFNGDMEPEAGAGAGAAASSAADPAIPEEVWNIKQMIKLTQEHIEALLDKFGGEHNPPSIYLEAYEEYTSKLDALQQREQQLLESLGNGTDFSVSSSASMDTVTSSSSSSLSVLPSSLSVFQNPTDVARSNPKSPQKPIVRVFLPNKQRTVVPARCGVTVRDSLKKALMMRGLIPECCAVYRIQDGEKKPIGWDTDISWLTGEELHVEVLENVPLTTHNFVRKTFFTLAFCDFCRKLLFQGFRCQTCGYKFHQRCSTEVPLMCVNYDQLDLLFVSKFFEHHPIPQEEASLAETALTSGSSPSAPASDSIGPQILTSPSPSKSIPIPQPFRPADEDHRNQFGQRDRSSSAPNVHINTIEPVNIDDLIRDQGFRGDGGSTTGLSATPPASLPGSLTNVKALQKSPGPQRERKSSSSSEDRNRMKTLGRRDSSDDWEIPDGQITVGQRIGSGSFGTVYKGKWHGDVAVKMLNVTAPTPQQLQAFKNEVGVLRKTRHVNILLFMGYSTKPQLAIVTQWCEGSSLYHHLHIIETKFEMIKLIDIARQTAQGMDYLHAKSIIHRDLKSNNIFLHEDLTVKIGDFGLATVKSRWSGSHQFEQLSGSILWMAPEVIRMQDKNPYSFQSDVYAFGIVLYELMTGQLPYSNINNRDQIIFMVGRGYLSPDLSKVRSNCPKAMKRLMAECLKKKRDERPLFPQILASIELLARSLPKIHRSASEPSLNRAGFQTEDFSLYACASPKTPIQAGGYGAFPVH
T10 sequence (P07333 20-972): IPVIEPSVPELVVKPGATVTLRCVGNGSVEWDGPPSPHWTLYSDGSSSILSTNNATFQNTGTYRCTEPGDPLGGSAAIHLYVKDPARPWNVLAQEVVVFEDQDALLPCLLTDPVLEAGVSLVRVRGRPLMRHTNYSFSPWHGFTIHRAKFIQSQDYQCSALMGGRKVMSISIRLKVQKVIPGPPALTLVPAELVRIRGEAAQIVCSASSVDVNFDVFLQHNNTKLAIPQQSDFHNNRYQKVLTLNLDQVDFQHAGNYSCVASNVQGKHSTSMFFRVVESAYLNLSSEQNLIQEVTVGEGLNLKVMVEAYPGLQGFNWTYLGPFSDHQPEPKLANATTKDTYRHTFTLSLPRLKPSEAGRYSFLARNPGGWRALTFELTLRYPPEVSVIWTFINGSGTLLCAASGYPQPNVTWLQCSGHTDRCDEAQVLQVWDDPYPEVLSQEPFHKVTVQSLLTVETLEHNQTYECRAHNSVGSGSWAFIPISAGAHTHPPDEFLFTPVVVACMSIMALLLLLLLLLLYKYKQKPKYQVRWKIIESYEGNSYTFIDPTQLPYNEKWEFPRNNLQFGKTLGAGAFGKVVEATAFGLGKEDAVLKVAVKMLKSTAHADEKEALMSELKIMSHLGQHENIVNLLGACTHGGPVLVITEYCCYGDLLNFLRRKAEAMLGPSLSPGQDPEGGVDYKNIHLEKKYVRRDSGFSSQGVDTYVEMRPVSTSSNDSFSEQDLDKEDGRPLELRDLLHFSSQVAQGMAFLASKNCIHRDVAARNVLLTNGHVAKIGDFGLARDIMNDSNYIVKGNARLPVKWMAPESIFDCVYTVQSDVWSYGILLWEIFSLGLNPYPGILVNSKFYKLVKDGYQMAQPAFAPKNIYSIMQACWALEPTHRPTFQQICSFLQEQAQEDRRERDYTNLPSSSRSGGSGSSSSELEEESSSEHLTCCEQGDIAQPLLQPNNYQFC
T15 sequence (Q14289 whole entry): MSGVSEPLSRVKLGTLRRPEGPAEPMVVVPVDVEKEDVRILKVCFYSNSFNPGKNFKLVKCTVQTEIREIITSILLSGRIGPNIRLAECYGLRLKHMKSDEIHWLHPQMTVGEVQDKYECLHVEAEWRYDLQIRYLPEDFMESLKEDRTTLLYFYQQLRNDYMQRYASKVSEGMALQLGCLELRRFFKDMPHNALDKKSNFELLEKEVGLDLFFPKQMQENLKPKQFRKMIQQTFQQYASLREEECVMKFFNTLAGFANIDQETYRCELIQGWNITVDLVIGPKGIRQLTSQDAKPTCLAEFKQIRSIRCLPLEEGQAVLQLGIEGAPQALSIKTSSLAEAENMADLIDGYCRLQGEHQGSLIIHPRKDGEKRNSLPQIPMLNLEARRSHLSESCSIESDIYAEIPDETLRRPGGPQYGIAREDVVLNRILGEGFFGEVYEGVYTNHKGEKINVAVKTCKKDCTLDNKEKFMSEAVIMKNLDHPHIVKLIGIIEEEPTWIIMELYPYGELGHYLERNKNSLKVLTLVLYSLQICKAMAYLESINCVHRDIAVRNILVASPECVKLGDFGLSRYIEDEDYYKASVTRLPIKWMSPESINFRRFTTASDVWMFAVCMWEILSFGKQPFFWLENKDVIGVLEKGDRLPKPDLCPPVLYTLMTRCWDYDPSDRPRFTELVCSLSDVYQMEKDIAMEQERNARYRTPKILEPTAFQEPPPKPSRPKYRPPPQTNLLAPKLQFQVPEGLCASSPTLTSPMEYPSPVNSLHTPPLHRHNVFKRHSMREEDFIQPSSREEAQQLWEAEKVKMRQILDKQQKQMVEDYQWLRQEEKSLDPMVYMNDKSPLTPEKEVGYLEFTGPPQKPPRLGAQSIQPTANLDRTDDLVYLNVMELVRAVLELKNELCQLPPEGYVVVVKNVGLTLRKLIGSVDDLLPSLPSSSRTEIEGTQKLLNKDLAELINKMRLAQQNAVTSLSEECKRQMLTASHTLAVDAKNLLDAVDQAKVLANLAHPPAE
T13 sequence (P10721 with tags, fused parts or gaps): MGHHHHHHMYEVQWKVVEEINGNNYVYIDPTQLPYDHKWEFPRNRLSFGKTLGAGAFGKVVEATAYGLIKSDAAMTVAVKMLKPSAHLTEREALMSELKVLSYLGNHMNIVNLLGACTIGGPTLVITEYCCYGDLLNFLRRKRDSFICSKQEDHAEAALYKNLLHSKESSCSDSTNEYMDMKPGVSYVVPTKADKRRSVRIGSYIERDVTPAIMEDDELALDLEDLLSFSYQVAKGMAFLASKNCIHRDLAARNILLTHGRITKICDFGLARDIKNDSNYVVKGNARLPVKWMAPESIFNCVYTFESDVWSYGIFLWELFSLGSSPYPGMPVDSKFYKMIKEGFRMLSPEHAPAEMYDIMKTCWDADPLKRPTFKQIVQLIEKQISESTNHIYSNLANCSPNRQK
T2 sequence (P45983 whole entry): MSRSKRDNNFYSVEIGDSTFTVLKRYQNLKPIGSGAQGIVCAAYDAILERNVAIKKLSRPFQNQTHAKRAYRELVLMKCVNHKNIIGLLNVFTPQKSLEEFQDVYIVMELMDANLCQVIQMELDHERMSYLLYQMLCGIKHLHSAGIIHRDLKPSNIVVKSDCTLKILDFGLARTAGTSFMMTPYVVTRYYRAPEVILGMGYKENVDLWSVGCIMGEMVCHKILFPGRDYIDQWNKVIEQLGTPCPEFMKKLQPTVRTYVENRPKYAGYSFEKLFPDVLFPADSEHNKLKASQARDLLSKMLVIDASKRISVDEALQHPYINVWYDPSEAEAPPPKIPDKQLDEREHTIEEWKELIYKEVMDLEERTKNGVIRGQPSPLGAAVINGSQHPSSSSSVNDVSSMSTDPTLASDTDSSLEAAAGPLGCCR
T12 sequence (Q05397 411-686): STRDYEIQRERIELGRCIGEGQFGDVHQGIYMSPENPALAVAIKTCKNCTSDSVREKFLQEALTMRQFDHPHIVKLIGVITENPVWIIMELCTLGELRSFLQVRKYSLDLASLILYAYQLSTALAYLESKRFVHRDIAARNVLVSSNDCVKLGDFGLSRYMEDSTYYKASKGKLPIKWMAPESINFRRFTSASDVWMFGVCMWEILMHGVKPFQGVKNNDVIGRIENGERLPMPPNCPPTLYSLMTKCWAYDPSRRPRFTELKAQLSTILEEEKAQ

CS(=O)(=O)Nc1ccc(F)c(C(=O)c2c[nH]c3ncc(-c4ccccc4)cc23)c1 [Compound P-0308, N-[4-Fluoro-3-(5-phenyl-1H-pyrrolo[2,3-b]pyridine-3-carbonyl)-phenyl]-methanesulfonamide]
≤ 10 µM: [1] | [2] | [3] | [4] | [5] | [6] | [7]

CCCNC(=O)Nc1ccc(F)c(C(=O)c2c[nH]c3ncc(-c4cccnc4)cc23)c1F [Compound P-0774, 1-[2,4-difluoro-3-(5-pyridin-3-yl-1H-pyrrolo[2,3-b]pyridine-3-carbonyl)-phenyl]-3-propyl-urea]
not listed: [1] | [7] | [15] | [16]
≤ 10 µM: all other assays above

CC(=O)Nc1ccc(F)c(C(O)c2c[nH]c3ncc(-c4cccnc4)cc23)c1F (centres unmarked) [Compound P-1069]
≤ 10 µM: [15] | [4]

CCCC(=O)Nc1ccc(F)c(C(O)c2c[nH]c3ncc(OC)cc23)c1F (centres unmarked) [Compound P-1367]
≤ 10 µM: [15] | [6] | [13]

c1ccc(N2CCOCC2)c(Nc2ccc3cc[nH]c3n2)c1 [Compound P-1377, (2-Morpholin-4-yl-phenyl)-(1H-pyrrolo[2,3-b]pyridin-6-yl)-amine]
≤ 10 µM: [15] | [6]

Brc1cnc2[nH]cc(Cc3ccccc3OCc3ccccc3)c2c1 [Compound P-1379]
≤ 10 µM: [15]

NC(=O)c1cccc(-c2cnc3[nH]cc(Cc4ccccc4OCc4ccccc4)c3c2)c1 [Compound P-1381]
≤ 10 µM: [15] | [10] | [4] | [6]

CCCCNC(=O)Nc1cccc(C(=O)c2c[nH]c3ncc(-c4cccnc4)cc23)c1 [Compound P-1445, 1-Butyl-3-[3-(5-pyridin-3-yl-1H-pyrrolo[2,3-b]pyridine-3-carbonyl)-phenyl]-urea]
not listed: [1] | [7] | [8] | [15] | [16]
≤ 10 µM: all other assays above

CCCCNC(=O)Nc1cccc(Cc2c[nH]c3ncc(-c4cccnc4)cc23)c1 [Compound P-1447, 1-butyl-3-[3-(5-pyridin-3-yl-1H-pyrrolo[2,3-b]pyridin-3-ylmethyl)-phenyl]-urea]
not listed: [1] | [7] | [8] | [15] | [16]
≤ 10 µM: all other assays above

CCCCNC(=O)n1ccc2c(C(=O)c3c[nH]c4ncc(-c5cccnc5)cc34)cccc21 [Compound P-1486, 4-(5-Pyridin-3-yl-1H-pyrrolo[2,3-b]pyridine-3-carbonyl)-indole-1-carboxylic acid butylamide]
not listed: [1] | [7] | [8] | [15]
≤ 10 µM: all other assays above

CCCS(=O)(=O)Nc1ccc(F)c(C(=O)c2c[nH]c3ncc(-c4ccc(C(=O)N(C)C)cc4)cc23)c1F [Compound P-1547, 4-{3-[2,6-Difluoro-3-(propane-1-sulfonylamino)-benzoyl]-1H-pyrrolo[2,3-b]pyridin-5-yl}-N,N-dimethyl-benzamide]
not listed: [1] | [7] | [11] | [12] | [15] | [16]
≤ 10 µM: all other assays above

O=C(Nc1ccccc1)Nc1cccc(C(=O)c2c[nH]c3ncc(-c4cccnc4)cc23)c1 [Compound P-1591, 1-Phenyl-3-[3-(5-pyridin-3-yl-1H-pyrrolo[2,3-b]pyridine-3-carbonyl)-phenyl]-urea]
≤ 10 µM: [9] | [10] | [2] | [3] | [4] | [5] | [6] | [13] | [14]

CCCS(=O)(=O)Nc1ccc(F)c(C(=O)c2c[nH]c3ncc(-c4cnn(C)c4)cc23)c1F [Compound P-1864, Propane-1-sulfonic acid {2,4-difluoro-3-[5-(1-methyl-1H-pyrazol-4-yl)-1H-pyrrolo[2,3-b]pyridine-3-carbonyl]-phenyl}-amide]
≤ 10 µM: [8] | [9] | [10] | [2] | [3] | [4] | [5] | [13]
